From patent publication US6774131B1, “Remedies for endothelin-induced diseases” (Yamanouchi Pharmaceutical Co., Ltd., priority 2000, dated 2004)

Key:
[1] = tested on: PPC-1, hormone-refractory human prostate cancer cells; experiment: ET-1-induced cell growth (cell number, alamar blue) of PPC-1; type: cell-based; conditions: for Cell growth (%): control = 100
Procedure: PPC-1, hormone-refractory human prostate cancer cells, was used in these experiments(International Journal of Cancer,44,898-903,1989).
Cell number was counted by using a reagent solution of a alamar blue. The cells were seeded at 2×10^4 cells/well in a 24-well plate, after adhesion, the culture media were exchanged to culture media with no FCS-added, and further cultured for another 24 hours. Thereafter, vehicle or ET-1 (10^−11 to 10^−6 M) was added, and cultured for 96 hours. The final volume of the culture medium was 500 μl. Alamar blue of 50 μl was added to the culture, and incubated for 4 hours. After reaction, 100 μl portions collected from the individual wells of the 24-well plate were then transferred to a 96-well plate, and measured the absorbance (at a wave length of 405 nm and a reference wave length of 650 nm) with a plate reader. As a control, the count of a culture to which the vehicle was added was defined 100%, thus the percentage increase of cell number was calculated. The inhibitory effect of the compound was examined by adding the Compound 1 to a final concentration of 10^−9 to 10^−5 M, 30 minutes prior to the addition of ET-1 at 10^−7 M.
At the experiment, the culture medium was exchanged to a culture medium to which ET-1 was contained, 48 hours after stimulation, because the degradation of ET-1 was possible.

[2] = tested on: MC3T3-E1, mouse osteoblast-like cells; experiment: ET-1-induced DNA synthesis ([3H]-thymidine incorporation) in MC3T3-E1; type: cell-based
Procedure: MC3T3-E1, mouse osteoblast-like cells, was used in these experiments (Journal of Cell Biology,96(1),191-198,1983).
As DNA synthesis level, the incorporation of [^3H]-labeled thymidine was assayed. The cells were seeded at a density of 1.5×10^4 cells/well in a 96-well plate using 0.2% FCS culture medium and cultured for 2 days. Subsequently, vehicle or ET-1 was added to the plate and cultured for 24 hours. Continuously, [^3H-methyl]-thymidine was added at 0.5 μCi/well to the culture and pulse-labeling performed for 6 hours. Continuously, SDS solution to a final concentration of 0.2% was added for solubilization of the cell, and after solubilization the radioactivity of [^3H-methyl]-thymidine used for DNA synthesis was counted with a liquid scintillation counter. As a control, the count of a culture to which the vehicle was added was defined 100%, thus the percentage increase of DNA synthesis was calculated. […]
The results are shown in the form of mean±standard error. The significant difference between groups was analyzed by one-way analysis of variance, to calculate the p-values by the Dunnett's multiple range test. […] At each experiment, the EC50 value of ET-1 and the IC50 value of the Compound 1 were calculated by the Logistic regression analysis.

[3] = Plasma concentration when orally administered to humans; type: in vivo, human
Procedure: For the purpose of the assessment of the pharmacokinetics, tolerance and safety of Compound 1 when orally administered, the Compound 1 was administered at a single dose of 10 mg to 3 subjects of progressive prostate cancer patients after prostatectomy. So as to assay the plasma concentration of intact Compound 1, blood of 6 ml was collected in a lithium heparin-containing polyethylene tube, prior to administration and at individual times of 30 minutes, one hour, 1.5 hour, 2 hours, 3 hours, 4 hours, 6 hours, 8 hours, 12 hours, 24 hours, 36hours and 48hours after administration, followed by immediate centrifugation (4° C., 10 minutes, 3500 rpm), to recover the plasma. The plasma samples were stored under freezing at −70° C. until the concentration was assayed. The plasma concentration was assayed by the LC-MS/MS method.

prostate cancer patients = experiment: Clinical study in prostate cancer patients; type: in vivo, human
Procedure: A clinical study was carried out under the following conditions using the patients suffering from prostate cancer.
Subjects: eighteen patients of at least 45 years of age with prostate cancer(stage D2) who are hormone-refractory or have relapsed after anti-androgen therapy.
Strength: 2,10 and 40 mg tablets
Dosage: 2,4,10,20,60,120and 240 mg/day-dose frequency was once daily ot twice daily
Duration of treatment: four weeks (28 days)
Parameters for evalution: Evaluations and measurements were made for the following items before and after the administration.
(1) Prostate specific antigen (PSA)
(2) Born metabolism markers (bone alkaline phosphatase or ratio of deoxypyridinoline/creatinine)
(3) Bone pain (change of visual analogue scale(VAS)/use of analgesics)

human ETA receptor = target: T1, human ETA receptor (Homo sapiens, UniProt P25101); conditions: Compound 1: WO97/22595; ABT-627: J.Pharmacol.Exp.Ther.,276,473-481,1996; read-out: affinity to human ETA receptor; cited from earlier work
T1 sequence (P25101 21-427): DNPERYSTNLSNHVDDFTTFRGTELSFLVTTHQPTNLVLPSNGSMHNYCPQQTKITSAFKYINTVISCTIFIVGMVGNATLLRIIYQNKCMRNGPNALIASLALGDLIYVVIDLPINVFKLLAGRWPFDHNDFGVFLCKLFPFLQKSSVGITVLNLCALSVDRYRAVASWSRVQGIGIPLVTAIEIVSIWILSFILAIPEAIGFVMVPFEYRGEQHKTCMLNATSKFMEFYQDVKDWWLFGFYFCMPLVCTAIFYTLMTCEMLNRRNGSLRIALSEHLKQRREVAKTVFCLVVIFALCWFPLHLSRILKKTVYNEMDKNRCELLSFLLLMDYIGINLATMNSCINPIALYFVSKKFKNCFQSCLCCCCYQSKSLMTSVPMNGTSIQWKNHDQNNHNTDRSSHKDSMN

[4] = single oral dose 10 mg, prostate cancer patients, plasma
[5] = 2-240 mg/day, four weeks, eighteen patients

Compound: ET-1: endothelin; induces pain in humans and experimental animals; used as stimulus of pain, Ca2+ increase and cell growth [reference compound]
- concentration from which ET-1-induced cell growth was observed [1]: ≥ 10^−11 M
- Cell growth (%) ([1]; ET-1 10^−7 M, 96 h, n = 7 (Table 2)): 119.3%
- Cell growth (%) ([1]; ET-1 10^−7 M, Compound 1 0 (Table 3), n = 7): 110.5%
- Cell growth (%) ([1]; ET-1 10^−8 M, 96 h, n = 7): 115.3%
- Cell growth (%) ([1]; ET-1 10^−9 M, 96 h, n = 7): 124.0%
- Cell growth (%) ([1]; ET-1 10^−10 M, 96 h, n = 7): 122.3%
- Cell growth (%) ([1]; ET-1 10^−11 M, 96 h, n = 7): 119.6%
- EC50 ([2]; ET-1 10^−13 to 10^−6 M, read-out: EC50 of increase of [3H]-thymidine incorporation (DNA synthesis)): 0.00984 nM

Compound: COc1ccccc1Oc1c(NS(=O)(=O)C=Cc2ccccc2)nc(-c2ncccn2)nc1OC.[K] [Compound 1, N-[6-methoxy-5-(2-methoxyphenoxy)-2-(2-pyrimidinyl)-4-pyrimidinyl]-2-phenylethenesulfoneamide•potassium salt]
- Cell growth (%) ([1]; Compound 1 10^−5 M with ET-1 10^−7 M, n = 7): 98.1%
- Cell growth (%) ([1]; Compound 1 10^−6 M with ET-1 10^−7 M, n = 7): 99.2%
- concentration from which ET-1-induced cell growth was inhibited ([1]; ET-1 10^−7 M): ≥ 10^−6 M
- AUC ratio Compound 1 (10 mg)/ABT-627 (20 mg) ([3]; oral, humans, listed as The effective component of the invention): about 18 fold
- AUC [3, 4]: 14700 ng·h/mL
- Cmax [3, 4]: 1000 ng/mL
- T max [3, 4]: 2 h
- T ½ [3, 4]: 13 h
- effective dose relative to the minimum effective dose of ABT-627 (prostate cancer patients; 2 mg vs 10 mg): ⅕
- patients with decreased bone specific alkaline phosphatase (prostate cancer patients; [5]): eleven (out of eighteen)
- patients with improved pain score VAS (prostate cancer patients; [5]): nine (out of eighteen)
- patients with improved prostate cancer marker PSA (prostate cancer patients; [5]): ten
- patients with improved ratio of deoxypyridinoline/creatinine (prostate cancer patients; [5]): fourteen (out of eighteen)
- patients with reduced analgesics (prostate cancer patients; [5]): four (out of eighteen)
- patients with stabilized PSA (prostate cancer patients; [5]): two
- dose from which effective (prostate cancer patients; Test Example 5, prostate cancer patients): ≥ 2 mg
- dose from which effective in improving each observed item (prostate cancer patients; oral tablets, four weeks): ≥ 2 mg/day
- IC50 ([2]; ET-1 10^−10 M, read-out: IC50 of ET-1-induced increase in [3H]-thymidine incorporation): 11.5 nM
- Ki (human ETA receptor): 0.697 nM
